What all share (test): DSF assay
What all share (assay type): binding
Common to all, as to details: 20 µM compound
A general note: Differential scanning fluorimetry follows unfolding on heating by fluorescence.

Assay [1] concerns the target T1, MAPK15A (Homo sapiens, UniProt Q8TD08).
T1 construct: purchased in-house DSF panel (SGC-style construct names; the trailing A/B is a construct suffix)
T1 sequence (Q8TD08 1-345): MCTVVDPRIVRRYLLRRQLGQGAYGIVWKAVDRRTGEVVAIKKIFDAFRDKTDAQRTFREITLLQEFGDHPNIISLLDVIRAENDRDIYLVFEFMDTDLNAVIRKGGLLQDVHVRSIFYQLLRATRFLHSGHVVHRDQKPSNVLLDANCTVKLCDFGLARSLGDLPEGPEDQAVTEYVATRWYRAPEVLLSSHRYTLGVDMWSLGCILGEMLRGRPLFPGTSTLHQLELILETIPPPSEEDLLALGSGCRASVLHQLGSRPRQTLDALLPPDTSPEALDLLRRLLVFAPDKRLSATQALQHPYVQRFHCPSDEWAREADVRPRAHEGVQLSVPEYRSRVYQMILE

The target of assay [2] is T2, CAMK4A (Homo sapiens, UniProt Q16566).
T2 construct: purchased in-house DSF panel (SGC-style construct names; the trailing A/B is a construct suffix)
T2 sequence (Q16566 1-473): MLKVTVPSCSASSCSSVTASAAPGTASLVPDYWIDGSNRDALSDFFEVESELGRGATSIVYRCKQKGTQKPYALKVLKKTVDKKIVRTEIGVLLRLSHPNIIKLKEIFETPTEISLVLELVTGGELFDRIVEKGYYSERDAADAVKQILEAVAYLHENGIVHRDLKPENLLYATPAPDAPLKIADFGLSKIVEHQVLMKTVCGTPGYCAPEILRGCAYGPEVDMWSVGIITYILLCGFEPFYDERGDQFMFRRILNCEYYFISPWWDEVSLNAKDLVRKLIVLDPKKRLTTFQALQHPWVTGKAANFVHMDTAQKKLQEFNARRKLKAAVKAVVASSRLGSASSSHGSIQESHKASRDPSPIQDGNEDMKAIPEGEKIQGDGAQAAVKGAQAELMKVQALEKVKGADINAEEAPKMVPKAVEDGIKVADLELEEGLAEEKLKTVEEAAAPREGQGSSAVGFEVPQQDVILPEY

The target of assay [3] is T3, MST4A (Homo sapiens, UniProt Q9P289).
T3 construct: purchased in-house DSF panel (SGC-style construct names; the trailing A/B is a construct suffix)
As to the method: (§1) Excitation and emission filters […]
(§2) curve. […] Measurements were
(§3) Kinobeads selectivity profiling of PROTACs
(§4) (Multiplexion, Heidelberg, Germany).
(§5) The cell lysate was ultracentrifuged and diluted
(§6) NaF, 1 mM DTT, protease inhibitors and phosphatase inhibitors to a final concentration of 5 mg/ml as determined by Bradford assay. For selectivity profiling of compounds the cell lysate (2.5 mg of total proteins per pulldown) was pre-incubated with increasing compound […]
(§7) µM) for 45 min at 4 °C in an end-over-end shaker. Subsequently, lysates were incubated with Kinobeads epsilon (17 µL settled beads) for 30 min at 4 °C. To assess the degree of protein depletion from the lysates by Kinobeads, the flow-through of the DMSO control was recovered

Assay [4] deals with T4, SLKA (Homo sapiens, UniProt Q9H2G2).
T4 construct: purchased in-house DSF panel (SGC-style construct names; the trailing A/B is a construct suffix)
The protocol: as §1, §2, §3, §4, §5, §6, §7

Assay [5] concerns RPS6KA1A. As to the method:
as §1, §2, §3, §4, §5, §6, §7

Assay [6] deals with T5, MAPK8B (Homo sapiens, UniProt P45983).
T5 construct: purchased in-house DSF panel (SGC-style construct names; the trailing A/B is a construct suffix)
As to the method: as §1, §2, §3, §4, §5, §6, §7

For assay [7], the target named is T6, STK38LA (Homo sapiens, UniProt Q9Y2H1).
T6 construct: purchased in-house DSF panel (SGC-style construct names; the trailing A/B is a construct suffix)
The protocol: as §1, §2, §3, §4, §5, §6, §7

Assay [8] addresses T7, CK2A1A (Homo sapiens, UniProt P68400).
T7 construct: purchased in-house DSF panel (SGC-style construct names; the trailing A/B is a construct suffix)
The protocol:
as §1, §2, §3, §4, §5, §6, §7

The target of assay [9] is T8, PKMYT1A (Homo sapiens, UniProt Q99640).
T8 construct: purchased in-house DSF panel (SGC-style construct names; the trailing A/B is a construct suffix)
T8 sequence (Q99640 75-362): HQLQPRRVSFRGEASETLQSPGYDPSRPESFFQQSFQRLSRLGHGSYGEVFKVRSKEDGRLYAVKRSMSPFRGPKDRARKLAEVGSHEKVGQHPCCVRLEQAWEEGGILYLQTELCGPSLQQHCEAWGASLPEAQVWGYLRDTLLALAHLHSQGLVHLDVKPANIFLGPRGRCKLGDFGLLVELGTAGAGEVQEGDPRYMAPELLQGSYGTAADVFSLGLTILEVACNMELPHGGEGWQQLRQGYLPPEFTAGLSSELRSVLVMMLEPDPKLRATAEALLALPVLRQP
As to the method:
as §1, §2, §3, §4, §5, §6, §7

Assay [10] addresses T9, MAPK9A (Homo sapiens, UniProt P45984).
T9 construct: purchased in-house DSF panel (SGC-style construct names; the trailing A/B is a construct suffix)
As to the method:
as §1, §2, §3, §4, §5, §6, §7

Assay [11] deals with T10, ABL1A (Homo sapiens, UniProt P00519).
T10 construct: purchased in-house DSF panel (SGC-style construct names; the trailing A/B is a construct suffix)
T10 sequence (P00519 229-512): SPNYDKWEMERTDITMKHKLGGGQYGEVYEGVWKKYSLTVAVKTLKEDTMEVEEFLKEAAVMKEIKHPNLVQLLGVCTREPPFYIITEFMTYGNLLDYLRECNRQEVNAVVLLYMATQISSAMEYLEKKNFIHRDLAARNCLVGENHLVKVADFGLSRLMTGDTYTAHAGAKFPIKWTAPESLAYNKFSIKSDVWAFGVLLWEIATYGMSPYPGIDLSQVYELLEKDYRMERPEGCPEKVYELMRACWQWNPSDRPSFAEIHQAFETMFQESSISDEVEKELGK

SMILES strings stand for the structures.

T5 sequence (P45983 1-364): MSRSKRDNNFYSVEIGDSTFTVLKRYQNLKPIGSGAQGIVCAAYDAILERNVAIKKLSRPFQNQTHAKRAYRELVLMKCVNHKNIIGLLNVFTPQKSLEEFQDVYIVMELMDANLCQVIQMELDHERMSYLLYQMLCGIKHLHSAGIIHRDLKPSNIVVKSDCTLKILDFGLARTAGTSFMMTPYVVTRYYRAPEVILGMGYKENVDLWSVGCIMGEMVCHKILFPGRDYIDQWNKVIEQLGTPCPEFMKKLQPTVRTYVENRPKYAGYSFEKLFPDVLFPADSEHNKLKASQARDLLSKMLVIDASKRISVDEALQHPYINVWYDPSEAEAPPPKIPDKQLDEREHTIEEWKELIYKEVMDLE
T6 sequence (Q9Y2H1 90-453): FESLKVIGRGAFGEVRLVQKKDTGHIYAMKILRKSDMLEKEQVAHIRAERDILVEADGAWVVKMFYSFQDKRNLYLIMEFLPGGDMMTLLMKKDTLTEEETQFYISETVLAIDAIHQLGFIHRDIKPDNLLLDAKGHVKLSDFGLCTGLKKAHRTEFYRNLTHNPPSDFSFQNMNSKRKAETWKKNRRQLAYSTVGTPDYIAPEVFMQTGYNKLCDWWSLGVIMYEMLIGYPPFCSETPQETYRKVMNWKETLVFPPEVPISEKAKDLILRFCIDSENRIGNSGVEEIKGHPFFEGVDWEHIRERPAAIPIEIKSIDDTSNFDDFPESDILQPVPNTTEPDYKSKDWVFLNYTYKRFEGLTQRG
T3 sequence (Q9P289 1-300): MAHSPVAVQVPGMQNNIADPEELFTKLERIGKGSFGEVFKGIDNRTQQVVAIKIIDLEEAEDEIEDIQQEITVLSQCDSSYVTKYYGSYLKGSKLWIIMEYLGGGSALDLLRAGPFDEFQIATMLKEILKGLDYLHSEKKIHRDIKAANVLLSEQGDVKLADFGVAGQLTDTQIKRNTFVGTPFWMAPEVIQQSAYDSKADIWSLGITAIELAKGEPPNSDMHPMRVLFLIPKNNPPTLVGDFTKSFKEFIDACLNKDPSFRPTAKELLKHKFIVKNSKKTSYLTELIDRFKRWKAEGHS
T7 sequence (P68400 whole entry): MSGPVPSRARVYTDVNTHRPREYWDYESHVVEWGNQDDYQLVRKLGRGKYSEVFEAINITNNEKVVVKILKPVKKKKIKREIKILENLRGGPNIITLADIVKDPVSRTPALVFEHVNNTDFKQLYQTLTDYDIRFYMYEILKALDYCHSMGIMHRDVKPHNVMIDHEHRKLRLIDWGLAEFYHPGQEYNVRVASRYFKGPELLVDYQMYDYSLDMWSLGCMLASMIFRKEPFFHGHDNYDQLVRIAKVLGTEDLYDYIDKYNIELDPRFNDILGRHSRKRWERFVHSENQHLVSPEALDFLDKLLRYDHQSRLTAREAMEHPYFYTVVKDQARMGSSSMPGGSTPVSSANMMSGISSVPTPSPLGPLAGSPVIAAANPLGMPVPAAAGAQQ
T9 sequence (P45984 1-364): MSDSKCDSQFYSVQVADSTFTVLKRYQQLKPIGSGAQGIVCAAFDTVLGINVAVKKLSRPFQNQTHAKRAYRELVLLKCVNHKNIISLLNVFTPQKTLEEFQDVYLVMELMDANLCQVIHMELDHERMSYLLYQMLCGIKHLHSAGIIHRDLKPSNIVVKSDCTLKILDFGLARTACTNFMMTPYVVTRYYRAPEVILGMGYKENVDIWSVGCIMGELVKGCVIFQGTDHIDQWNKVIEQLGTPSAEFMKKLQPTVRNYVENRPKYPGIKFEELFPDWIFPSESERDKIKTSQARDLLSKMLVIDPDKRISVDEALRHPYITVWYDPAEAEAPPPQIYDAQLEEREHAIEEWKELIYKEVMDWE

The term ΔTm denotes the shift of the melting midpoint relative to a reference. As to `CC(C)(C)OC(=O)NCCCOCCOCCOCCCNC(=O)c1cc(Nc2cc(C3CC3)[nH]n2)nc(Nc2ccc(CC#N)cc2)n1` [5-L], the ΔTm at 20 µM in [1] stood at 17 °C; in assay [2], 5.11 °C; in [3], 4.64 °C; in assay [4] it was 8.84 °C; in assay [6] it was 6.48 °C; in assay [7] it was 7.04 °C. The ΔTm at 20 µM in [8] is 5.58 °C; in [9], -0.12 °C; in assay [10] it was 4.61 °C; in [11], 6.31 °C. Also, the ΔTm in assay [5] is 1.85 °C.

Turning to `CCOC(=O)c1cc(Nc2cc(C3CC3)[nH]n2)nc(Nc2ccc(CC#N)cc2)n1` [compound 5], the ΔTm at 20 µM in assay [1] was 14.8 °C; in assay [2], 3.64 °C; in assay [3], 5.53 °C; in [4], 9.06 °C; in assay [6], 4.31 °C; in [7], 6.74 °C. Moreover, the ΔTm at 20 µM was 3.87 °C in assay [8], -1.04 °C in assay [9], 2.84 °C in assay [10] and 7.27 °C in assay [11]. The ΔTm in assay [5] was found to be 1.55 °C.

For the compound `CC(C)(C)OC(=O)NCCOCCOCCOCCOCCC(=O)N1CCN(c2cc(Nc3cc(C4CC4)[nH]n3)nc(Nc3ccc(CC#N)cc3)n2)CC1` [4-L], the ΔTm at 20 µM turned out to be 16.4 °C in assay [1]; 2.43 °C in assay [2]; 9.01 °C in assay [3]; 11.3 °C in [4]; 6.93 °C in [6]; 10.2 °C in assay [7]. The ΔTm at 20 µM in [8] is 3.81 °C; in assay [9], -2.93 °C; in assay [10], 4.27 °C; in assay [11], 11.3 °C. In addition, the ΔTm in assay [5] came out at 0.76 °C.

These data come from publication PMC11851430, “Workflow for E3 Ligase Ligand Validation for PROTAC Development” (ACS Chemical Biology, 2025).
